`O=C(O)c1cccc(C(=O)O)c1` gave a solubility (mole fraction) (in ethanol, 283.15 K) of 0.00328, a solubility (mole fraction) (in ethanol, 288.15 K) of 0.00369 and a solubility (mole fraction) (in ethanol, 293.15 K) of 0.00406. The solubility (mole fraction) (in ethanol, 298.15 K) was 0.00451, the solubility (mole fraction) (in ethanol, 303.15 K) was 0.005 and the solubility (mole fraction) (in ethanol, 308.15 K) was 0.00559. The solubility (mole fraction) (in ethanol, 313.15 K) was 0.00616, the solubility (mole fraction) (in ethanol, 318.15 K) was 0.00682 and the solubility (mole fraction) (in ethanol, 323.15 K) was 0.00752. It also gave a solubility (mole fraction) (in methanol, 283.15 K) of 0.00269, a solubility (mole fraction) (in methanol, 288.15 K) of 0.00304 and a solubility (mole fraction) (in methanol, 293.15 K) of 0.00342. It also gave a solubility (mole fraction) (in methanol, 298.15 K) of 0.00376, a solubility (mole fraction) (in methanol, 303.15 K) of 0.00422 and a solubility (mole fraction) (in methanol, 308.15 K) of 0.00473. For the same compound, the solubility (mole fraction) (in methanol, 313.15 K) was 0.00527, the solubility (mole fraction) (in methanol, 318.15 K) was 0.0059 and the solubility (mole fraction) (in methanol, 323.15 K) was 0.00654. For the same compound, the solubility (mole fraction) (in n-propanol, 283.15 K) was 0.00287, the solubility (mole fraction) (in n-propanol, 288.15 K) was 0.0032 and the solubility (mole fraction) (in n-propanol, 293.15 K) was 0.00362. For the same compound, the solubility (mole fraction) (in n-propanol, 298.15 K) was 0.00415, the solubility (mole fraction) (in n-propanol, 303.15 K) was 0.00472 and the solubility (mole fraction) (in n-propanol, 308.15 K) was 0.00533. It also gave a solubility (mole fraction) (in n-propanol, 313.15 K) of 0.00603, a solubility (mole fraction) (in n-propanol, 318.15 K) of 0.00689 and a solubility (mole fraction) (in n-propanol, 323.15 K) of 0.00774.
